Assay results: the CheMixHub viscosity set
± gives the uncertainty stated by the source.

Assay: xn = mol fraction of the nth substance listed
Conditions: 101 kPa

**Q.** For `CC(C)CCO` + ClCCCl, which viscosity (303.15 K, x1 = 0.1272) is on record?
**A.** 0.743 ± 0.019 mPa·s

**Q.** And the viscosity (303.15 K, x1 = 0.2201)?
**A.** 0.797 ± 0.02 mPa·s

**Q.** What about the viscosity (303.15 K, x1 = 0.3264) of the same compound?
**A.** 0.9054 ± 0.021 mPa·s

**Q.** And the viscosity (303.15 K, x1 = 0.4302)?
**A.** 1.029 ± 0.023 mPa·s

**Q.** What about the viscosity (303.15 K, x1 = 0.5765) of the same compound?
**A.** 1.302 ± 0.027 mPa·s

**Q.** What about the viscosity (303.15 K, x1 = 0.6639) of the same compound?
**A.** 1.532 ± 0.03 mPa·s

**Q.** And the viscosity (303.15 K, x1 = 0.8049)?
**A.** 2.081 ± 0.038 mPa·s

**Q.** And the viscosity (303.15 K, x1 = 0.888)?
**A.** 2.51 ± 0.045 mPa·s

**Q.** What about the viscosity (313.15 K, x1 = 0.1272) of the same compound?
**A.** 0.6478 ± 0.018 mPa·s

**Q.** And the viscosity (313.15 K, x1 = 0.2201)?
**A.** 0.6865 ± 0.018 mPa·s

**Q.** What about the viscosity (313.15 K, x1 = 0.3264) of the same compound?
**A.** 0.7649 ± 0.019 mPa·s

**Q.** What about the viscosity (313.15 K, x1 = 0.4302) of the same compound?
**A.** 0.8579 ± 0.021 mPa·s

**Q.** What about the viscosity (313.15 K, x1 = 0.5765) of the same compound?
**A.** 1.065 ± 0.024 mPa·s

**Q.** And the viscosity (313.15 K, x1 = 0.6639)?
**A.** 1.23 ± 0.026 mPa·s

**Q.** What about the viscosity (313.15 K, x1 = 0.8049) of the same compound?
**A.** 1.619 ± 0.032 mPa·s

**Q.** And the viscosity (313.15 K, x1 = 0.888)?
**A.** 1.91 ± 0.036 mPa·s

**Q.** And the viscosity (323.15 K, x1 = 0.1272)?
**A.** 0.5786 ± 0.017 mPa·s

**Q.** And the viscosity (323.15 K, x1 = 0.2201)?
**A.** 0.603 ± 0.017 mPa·s

**Q.** What about the viscosity (323.15 K, x1 = 0.3264) of the same compound?
**A.** 0.665 ± 0.018 mPa·s

**Q.** What about the viscosity (323.15 K, x1 = 0.4302) of the same compound?
**A.** 0.7365 ± 0.019 mPa·s

**Q.** And the viscosity (323.15 K, x1 = 0.5765)?
**A.** 0.8917 ± 0.021 mPa·s

**Q.** And the viscosity (323.15 K, x1 = 0.6639)?
**A.** 1.015 ± 0.023 mPa·s

**Q.** And the viscosity (323.15 K, x1 = 0.8049)?
**A.** 1.309 ± 0.027 mPa·s

**Q.** What about the viscosity (323.15 K, x1 = 0.888) of the same compound?
**A.** 1.507 ± 0.03 mPa·s

**Q.** For `CC(CC(C)(C)C)CP(=O)(O)CC(C)CC(C)(C)C` (centres undefined) + ClCCCl, which viscosity (298.15 K, x1 = 0.0052) is on record?
**A.** 0.825 ± 0.01 mPa·s

**Q.** And the viscosity (298.15 K, x1 = 0.0094)?
**A.** 0.891 ± 0.011 mPa·s

**Q.** What about the viscosity (298.15 K, x1 = 0.0107) of the same compound?
**A.** 0.931 ± 0.011 mPa·s

**Q.** And the viscosity (298.15 K, x2 = 0.0747)?
**A.** 93.3 ± 1.4 mPa·s

**Q.** What about the viscosity (298.15 K, x2 = 0.1457) of the same compound?
**A.** 79.06 ± 1.1 mPa·s

**Q.** And the viscosity (298.15 K, x2 = 0.2376)?
**A.** 61.57 ± 0.73 mPa·s

**Q.** And the viscosity (298.15 K, x2 = 0.3715)?
**A.** 42.12 ± 0.49 mPa·s

**Q.** What about the viscosity (298.15 K, x2 = 0.568) of the same compound?
**A.** 20.09 ± 0.23 mPa·s

**Q.** And the viscosity (298.15 K, x2 = 0.7166)?
**A.** 9.021 ± 0.11 mPa·s

**Q.** What about the viscosity (298.15 K, x2 = 0.8017) of the same compound?
**A.** 5.212 ± 0.061 mPa·s

**Q.** What about the viscosity (298.15 K, x2 = 0.8105) of the same compound?
**A.** 4.99 ± 0.058 mPa·s

**Q.** And the viscosity (298.15 K, x2 = 0.8887)?
**A.** 2.678 ± 0.031 mPa·s

**Q.** What about the viscosity (298.15 K, x2 = 0.8942) of the same compound?
**A.** 2.603 ± 0.03 mPa·s

**Q.** And the viscosity (298.15 K, x2 = 0.9417)?
**A.** 1.597 ± 0.019 mPa·s

**Q.** What about the viscosity (298.15 K, x2 = 0.9439) of the same compound?
**A.** 1.578 ± 0.018 mPa·s

**Q.** And the viscosity (298.15 K, x2 = 0.9767)?
**A.** 1.087 ± 0.013 mPa·s

**Q.** Which viscosity (308.15 K, x1 = 0.1163) does the source give for `CCOCCO` + NC1CCCCC1 here?
**A.** 1.345 ± 0.14 mPa·s

**Q.** What about the viscosity (308.15 K, x1 = 0.2284) of the same compound?
**A.** 1.366 ± 0.14 mPa·s

**Q.** And the viscosity (308.15 K, x1 = 0.3366)?
**A.** 1.391 ± 0.14 mPa·s

**Q.** What about the viscosity (308.15 K, x1 = 0.4411) of the same compound?
**A.** 1.419 ± 0.15 mPa·s

**Q.** What about the viscosity (308.15 K, x1 = 0.5421) of the same compound?
**A.** 1.437 ± 0.15 mPa·s

**Q.** What about the viscosity (308.15 K, x1 = 0.6398) of the same compound?
**A.** 1.457 ± 0.15 mPa·s

**Q.** What about the viscosity (308.15 K, x1 = 0.7342) of the same compound?
**A.** 1.459 ± 0.15 mPa·s

**Q.** And the viscosity (308.15 K, x1 = 0.8257)?
**A.** 1.455 ± 0.15 mPa·s

**Q.** And the viscosity (308.15 K, x1 = 0.9142)?
**A.** 1.45 ± 0.15 mPa·s

**Q.** What does the source list for `CC(C)CCO` + NC=O?
**A.** viscosity (298.1 K, x2 = 0.0932): 3.579 ± 0.0046 mPa·s; viscosity (298.1 K, x2 = 0.1809): 3.571 ± 0.004 mPa·s; viscosity (298.1 K, x2 = 0.2579): 3.687 ± 0.0034 mPa·s; viscosity (298.1 K, x2 = 0.3292): 3.799 ± 0.0028 mPa·s; viscosity (298.1 K, x2 = 0.4564): 3.993 ± 0.0017 mPa·s; viscosity (298.1 K, x2 = 0.5661): 4.174 ± 0.0009 mPa·s; viscosity (298.1 K, x2 = 0.6617): 4.273 ± 0.0013 mPa·s; viscosity (298.1 K, x2 = 0.7463): 4.252 ± 0.0024 mPa·s; viscosity (298.1 K, x2 = 0.8205): 4.071 ± 0.0035 mPa·s; viscosity (298.1 K, x2 = 0.8871): 3.8 ± 0.0047 mPa·s; viscosity (298.1 K, x2 = 0.9462): 3.567 ± 0.0059 mPa·s

**Q.** For `CCOCCO` + NC=O, which viscosity (303 K, x2 = 0.1539) is on record?
**A.** 2.222 ± 0.35 mPa·s

**Q.** What about the viscosity (303 K, x2 = 0.3334) of the same compound?
**A.** 2.676 ± 0.39 mPa·s

**Q.** And the viscosity (303 K, x2 = 0.4617)?
**A.** 2.99 ± 0.42 mPa·s

**Q.** And the viscosity (303 K, x2 = 0.5714)?
**A.** 3.203 ± 0.44 mPa·s

**Q.** What about the viscosity (303 K, x2 = 0.6669) of the same compound?
**A.** 3.477 ± 0.47 mPa·s

**Q.** What about the viscosity (303 K, x2 = 0.7501) of the same compound?
**A.** 3.576 ± 0.48 mPa·s

**Q.** And the viscosity (303 K, x2 = 0.8235)?
**A.** 3.446 ± 0.47 mPa·s

**Q.** What about the viscosity (303 K, x2 = 0.8889) of the same compound?
**A.** 3.199 ± 0.44 mPa·s

**Q.** And the viscosity (303 K, x2 = 0.9474)?
**A.** 3.008 ± 0.42 mPa·s

**Q.** What about the viscosity (303.15 K, x2 = 0.8063) of the same compound?
**A.** 3.495 ± 0.052 mPa·s

**Q.** And the viscosity (313 K, x2 = 0.1539)?
**A.** 1.769 ± 0.3 mPa·s

**Q.** What about the viscosity (313 K, x2 = 0.3334) of the same compound?
**A.** 2.075 ± 0.33 mPa·s

**Q.** And the viscosity (313 K, x2 = 0.4617)?
**A.** 2.139 ± 0.34 mPa·s

**Q.** What about the viscosity (313 K, x2 = 0.5714) of the same compound?
**A.** 2.481 ± 0.37 mPa·s

**Q.** And the viscosity (313 K, x2 = 0.6669)?
**A.** 2.647 ± 0.39 mPa·s

**Q.** What about the viscosity (313 K, x2 = 0.7501) of the same compound?
**A.** 2.752 ± 0.4 mPa·s

**Q.** What about the viscosity (313 K, x2 = 0.8235) of the same compound?
**A.** 2.588 ± 0.38 mPa·s

**Q.** What about the viscosity (313 K, x2 = 0.8889) of the same compound?
**A.** 2.513 ± 0.38 mPa·s

**Q.** What about the viscosity (323.15 K, x2 = 0.2009) of the same compound?
**A.** 1.415 ± 0.022 mPa·s

**Q.** What does the source list for `CCOCCO` + NCCO?
**A.** viscosity (293.15 K, x2 = 0.141): 2.898 ± 0.16 mPa·s; viscosity (293.15 K, x2 = 0.387): 5.417 ± 0.27 mPa·s; viscosity (293.15 K, x2 = 0.596): 9.217 ± 0.48 mPa·s; viscosity (293.15 K, x2 = 0.775): 14.17 ± 0.72 mPa·s; viscosity (293.15 K, x2 = 0.93): 20.26 ± 1 mPa·s; viscosity (298.15 K, x2 = 0.141): 2.544 ± 0.14 mPa·s; viscosity (298.15 K, x2 = 0.387): 4.594 ± 0.24 mPa·s; viscosity (298.15 K, x2 = 0.596): 7.588 ± 0.39 mPa·s; viscosity (298.15 K, x2 = 0.775): 11.37 ± 0.58 mPa·s; viscosity (298.15 K, x2 = 0.93): 15.94 ± 0.81 mPa·s; viscosity (303.15 K, x2 = 0.141): 2.246 ± 0.12 mPa·s; viscosity (303.15 K, x2 = 0.387): 3.935 ± 0.2 mPa·s; viscosity (303.15 K, x2 = 0.596): 6.312 ± 0.32 mPa·s; viscosity (303.15 K, x2 = 0.775): 9.259 ± 0.47 mPa·s; viscosity (303.15 K, x2 = 0.93): 12.77 ± 0.65 mPa·s; viscosity (308.15 K, x2 = 0.141): 1.998 ± 0.1 mPa·s; viscosity (308.15 K, x2 = 0.387): 3.401 ± 0.18 mPa·s; viscosity (308.15 K, x2 = 0.596): 5.319 ± 0.27 mPa·s; viscosity (308.15 K, x2 = 0.775): 7.642 ± 0.39 mPa·s; viscosity (308.15 K, x2 = 0.93): 10.37 ± 0.53 mPa·s; viscosity (313.15 K, x2 = 0.141): 1.786 ± 0.093 mPa·s; viscosity (313.15 K, x2 = 0.387): 2.963 ± 0.15 mPa·s; viscosity (313.15 K, x2 = 0.596): 4.527 ± 0.23 mPa·s; viscosity (313.15 K, x2 = 0.775): 6.388 ± 0.33 mPa·s; viscosity (313.15 K, x2 = 0.93): 8.539 ± 0.43 mPa·s; viscosity (318.15 K, x2 = 0.141): 1.605 ± 0.084 mPa·s; viscosity (318.15 K, x2 = 0.387): 2.6 ± 0.13 mPa·s; viscosity (318.15 K, x2 = 0.596): 3.89 ± 0.2 mPa·s; viscosity (318.15 K, x2 = 0.775): 5.402 ± 0.27 mPa·s; viscosity (318.15 K, x2 = 0.93): 7.122 ± 0.36 mPa·s; viscosity (323.15 K, x2 = 0.141): 1.449 ± 0.075 mPa·s; viscosity (323.15 K, x2 = 0.387): 2.297 ± 0.12 mPa·s; viscosity (323.15 K, x2 = 0.596): 3.371 ± 0.17 mPa·s; viscosity (323.15 K, x2 = 0.775): 4.614 ± 0.23 mPa·s; viscosity (323.15 K, x2 = 0.93): 6.005 ± 0.3 mPa·s
